Source: PMC11768370, “Etodolac Single Dose Metabolic Profile Elucidation: Pharmacokinetics and Adverse Events in Healthy Volunteers” (Pharmaceuticals, 2025)

Assays:
[1] = design: method as in PMID 36959150; conditions: cited from earlier work
[2] = tested on: plasma metabolites; assay: Untargeted plasma metabolomic profile pre-dose (T0) vs post-dose (Tmax), UPLC-QToF; format: in vivo, human; conditions: healthy volunteers, single dose 500 mg
Procedure: Samples were collected at two times: (i) baseline samples (time 0 h), termed the pre-dose group, and (ii) samples at maximum drug concentration (Cmax), termed the post-dose group. Samples were randomized, and 25 μL of each was collected to form a pooled sample for quality control (QC). An aliquot of plasma (200 μL) was extracted by adding cold methanol (400 μL) for protein precipitation. The samples were then vortexed for 30 s and centrifuged at 12,879× g for 10 min at 4 °C. Finally, the supernatant (400 μL) was collected and dried over a stream of nitrogen gas (N2). Samples were resuspended with 200 µL of acetonitrile (ACN)/water (H2O) (1:1 v/v). Sample extraction and analysis were randomized to reduce instrumental and biological bias. QC samples were analyzed every 10 samples to check for variations in extraction and system stability.
The analysis was adapted and performed on an ACQUITY® FTN H Class (Waters, Newcastle, UK) liquid chromatography (UPLC) coupled to a XEVO-G2XS (QToF) quadrupole time-of-flight mass spectrometer (UPLC-QToF) (Waters, Manchester, UK) equipped with an electrospray ionization (ESI) source operated in the positive and negative ionization mode, separately. An ACQUITY UPLC ® CSH C18 column (2.1 mm × 100 mm × 1.7 µm, Waters, Newcastle, UK) was employed as a stationary phase. […]

[3] = Adverse events monitoring by clinical evaluation and laboratory tests after single dose
[4] = 37 healthy volunteers, single dose 500 mg
[5] = Adverse event: Alanine Aminotransferase Increased
[6] = Adverse event: Alkaline Phosphatase Increased
[7] = Adverse event: Altered Erythrogram
[8] = Adverse event: Altered Leukogram
[9] = Adverse event: Decreased Platelet Count
[10] = Adverse event: Fastting Glucose Increased
[11] = Adverse event: Increased Total Bilirubin and Fractions
[12] = Adverse event: Total Cholesterol Increased

For `CCc1cccc2c3c([nH]c12)C(CC)(CC(=O)O)OCC3` (stereo not shown) [Etodolac], the solubility [1] is given as “poor solubility”, the “Biopharmaceutics Classification System class” value ([1]; dissolution rate-dependent absorption) is given as “BCS class II” and the “6-ketoprostaglandin E1 relative abundance at Tmax compared to T0” value [2] is given as “increases twist time in relative abundance”. The “15-epi-lipoxin A4 relative abundance at Tmax compared to T0” value [2] was “increases in relative abundance”, the “adverse events: intensity (all events)” value [3, 4] was “mild” and the “adverse events: predictability (all events)” value [3, 4] was “not expected”. The “adverse events recorded (total)” value ([3]; 37 healthy volunteers, single dose 500 mg, results outside reference values) was 19, the “Intensity (Mild / Moderate / Severe / Lethal)” value [3, 5] was “Mild” and the “Predictability (Expected / Not Expected)” value [3, 5] was “Not Expected”. For the same compound, the Events count ([3]; Adverse event: Alanine Aminotransferase Increased, 37 healthy volunteers, single dose 500 mg) was 3, the “Intensity (Mild / Moderate / Severe / Lethal)” value [3, 6] was “Mild” and the “Predictability (Expected / Not Expected)” value [3, 6] was “Not Expected”. For the same compound, the Events count ([3]; Adverse event: Alkaline Phosphatase Increased, 37 healthy volunteers, single dose 500 mg) was 1, the “Intensity (Mild / Moderate / Severe / Lethal)” value [3, 7] was “Mild” and the “Predictability (Expected / Not Expected)” value [3, 7] was “Not Expected”. The Events count ([3]; Adverse event: Altered Erythrogram, 37 healthy volunteers, single dose 500 mg) was 3, the “Intensity (Mild / Moderate / Severe / Lethal)” value [3, 8] was “Mild” and the “Predictability (Expected / Not Expected)” value [3, 8] was “Not Expected”. The Events count ([3]; Adverse event: Altered Leukogram, 37 healthy volunteers, single dose 500 mg) was 3, the “Intensity (Mild / Moderate / Severe / Lethal)” value [3, 9] was “Mild” and the “Predictability (Expected / Not Expected)” value [3, 9] was “Not Expected”. For the same compound, the Events count ([3]; Adverse event: Decreased Platelet Count, 37 healthy volunteers, single dose 500 mg) was 1, the “Intensity (Mild / Moderate / Severe / Lethal)” value [3, 10] was “Mild” and the “Predictability (Expected / Not Expected)” value [3, 10] was “Not Expected”. The Events count ([3]; Adverse event: Fastting Glucose Increased, 37 healthy volunteers, single dose 500 mg) was 3, the “Intensity (Mild / Moderate / Severe / Lethal)” value [3, 11] was “Mild” and the “Predictability (Expected / Not Expected)” value [3, 11] was “Not Expected”. The Events count ([3]; Adverse event: Increased Total Bilirubin and Fractions, 37 healthy volunteers, single dose 500 mg) was 1, the “Intensity (Mild / Moderate / Severe / Lethal)” value ([3]; Adverse event: Leukocyturia) was “Mild” and the “Predictability (Expected / Not Expected)” value ([3]; Adverse event: Leukocyturia) was “Not Expected”. For the same compound, the Events count ([3]; Adverse event: Leukocyturia, 37 healthy volunteers, single dose 500 mg) was 1, the “Intensity (Mild / Moderate / Severe / Lethal)” value [3, 12] was “Mild” and the “Predictability (Expected / Not Expected)” value [3, 12] was “Not Expected”. For the same compound, the Events count ([3]; Adverse event: Total Cholesterol Increased, 37 healthy volunteers, single dose 500 mg) was 3.
